From patent US6737383B1, “Herbicidal oxadiazolidines” (priority 1999, dated 2004)

Tests used:
blackgrass = experiment: Test B pre/postemergence blackgrass; format: in vivo, Alopecurus myosuroides
Outline: (§1)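 Test chemicals in a non-phytotoxic solvent mixture with surfactant were sprayed preemergence onto planted seeds and postemergence onto plants 2 to 18 cm tall (1- to 4-leaf stage). After twelve to sixteen days in a greenhouse, injury was visually rated against untreated controls from 0 (no effect) to 10 (complete control).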

surinam grass = experiment: Test B pre/postemergence surinam grass; format: in vivo, Brachiaria decumbens
Outline: as §1

cocklebur = experiment: Test B pre/postemergence cocklebur; format: in vivo, Xanthium strumarium
Outline: as §1

corn = experiment: Test B pre/postemergence corn; format: in vivo, Zea mays
Outline: as §1

crabgrass = experiment: Test B pre/postemergence crabgrass; format: in vivo, Digitaria sanguinalis
Outline: as §1

giant foxtail = experiment: Test B pre/postemergence giant foxtail; format: in vivo, Setaria faberii
Outline: as §1

morningglory = experiment: Test B pre/postemergence morningglory; format: in vivo, Ipomoea hederacea
Outline: as §1

pigweed = experiment: Test B pre/postemergence pigweed; format: in vivo, Amaranthus retroflexus
Outline: as §1

rape = experiment: Test B pre/postemergence rape; format: in vivo, Brassica napus
Outline: as §1

sugar beet = experiment: Test B pre/postemergence sugar beet; format: in vivo, Beta vulgaris
Outline: as §1

velvetleaf = experiment: Test B pre/postemergence velvetleaf; format: in vivo, Abutilon theophrasti
Outline: as §1

wheat = experiment: Test B pre/postemergence wheat; format: in vivo, Triticum aestivum
Outline: as §1

purple nutsedge = experiment: Test B pre/postemergence purple nutsedge; format: in vivo, Cyperus rotundus
Outline: as §1

rice = experiment: Test B flood test rice; format: in vivo, Oryza sativa
Outline: (§2)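 Plants were grown to the 2-leaf stage before treatment with test chemical, then held in a greenhouse for twelve to sixteen days. Injury was visually rated against untreated controls on a 0–10 scale, where 0 is no effect and 10 is complete control.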

smallflower flatsedge = experiment: Test B flood test smallflower flatsedge; format: in vivo, Cyperus difformis
Outline: as §2

duck salad = experiment: Test B flood test duck salad; format: in vivo, Heteranthera limosa
Outline: as §2

[1] = Postemergence, Rate 62 g/ha, scale 0 to 10, 0 is no effect, 10 is complete control
[2] = Postemergence, Rate 250 g/ha, scale 0 to 10, 0 no effect, 10 complete control
[3] = Preemergence, Rate 62 g/ha, scale 0 to 10 (0 no effect, 10 complete control)
[4] = Preemergence, Rate 125 g/ha, scale 0 to 10 (0 no effect, 10 complete control)
[5] = Preemergence, Rate 250 g/ha, scale of 0 to 10 where 0 is no effect and 10 is complete control
[6] = Preemergence, Rate 500 g/ha, scale 0 (no effect) to 10 (complete control)
[7] = Rate 125 g/ha, Postemergence, scale 0 to 10, 0 no effect, 10 complete control
[8] = Rate 500 g/ha, Postemergence, scale 0 to 10, 0 no effect, 10 complete control
[9] = Rate 125 g/ha, Postemergence section (flood test species), scale 0 to 10, 0 no effect, 10 complete control
[10] = Rate 500 g/ha, listed under Postemergence (flood test species), scale 0 to 10, 0 no effect, 10 complete control
[11] = flood test, listed under Postemergence, Rate 250 g/ha, scale 0 to 10, 0 no effect, 10 complete control

COc1cccc(C)c1-n1c(=O)on(C(=O)N(c2ccc(F)cc2)C(C)C)c1=O [Compound 62]
Blackgrass plant response rating (blackgrass; [1]): 0
Blackgrass plant response rating (blackgrass; [2]): 0
Blackgrass plant response rating (blackgrass; [3]): 0
Plant response rating, Blackgrass (blackgrass; [4]): 0
Plant response rating, Blackgrass (blackgrass; [5]): 2
Blackgrass plant response rating (blackgrass; [6]): 4
Blackgrass plant response rating (blackgrass; [7]): 0
Blackgrass plant response rating (blackgrass; [8]): 2
B. signalgrass plant response rating (surinam grass; [1]): 0
B. signalgrass plant response rating (surinam grass; [2]): 2
B. signalgrass plant response rating (surinam grass; [3]): 0
Plant response rating, B. signalgrass (surinam grass; [4]): 0
Plant response rating, B. signalgrass (surinam grass; [5]): 0
B. signalgrass plant response rating (surinam grass; [6]): 0
B. signalgrass plant response rating (surinam grass; [7]): 0
B. signalgrass plant response rating (surinam grass; Rate 500 g/ha, Postemergence, scale of 0 to 10 where 0 is no effect and 10 is complete control): 4
Cocklebur plant response rating (cocklebur; [1]): 0
Cocklebur plant response rating (cocklebur; [2]): 6
Cocklebur plant response rating (cocklebur; [3]): 0
Plant response rating, Cocklebur (cocklebur; [5]): 0
Cocklebur plant response rating (cocklebur; [6]): 5
Cocklebur plant response rating (cocklebur; [7]): 4
Cocklebur plant response rating (cocklebur; [8]): 6
Corn plant response rating (corn; [1]): 0
Corn plant response rating (corn; [2]): 0
Corn plant response rating (corn; [3]): 0
Plant response rating, Corn (corn; [4]): 0
Plant response rating, Corn (corn; [5]): 0
Corn plant response rating (corn; [6]): 0
Corn plant response rating (corn; [7]): 0
Corn plant response rating (corn; [8]): 0
Crabgrass plant response rating (crabgrass; [1]): 0
Crabgrass plant response rating (crabgrass; [2]): 0
Crabgrass plant response rating (crabgrass; [3]): 2
Plant response rating, Crabgrass (crabgrass; [4]): 3
Plant response rating, Crabgrass (crabgrass; [5]): 6
Crabgrass plant response rating (crabgrass; [6]): 9
Crabgrass plant response rating (crabgrass; [7]): 0
Crabgrass plant response rating (crabgrass; [8]): 7
Giant foxtail plant response rating (giant foxtail; [1]): 0
Giant foxtail plant response rating (giant foxtail; [2]): 0
Giant foxtail plant response rating (giant foxtail; [3]): 5
Plant response rating, Giant foxtail (giant foxtail; [4]): 5
Plant response rating, Giant foxtail (giant foxtail; [5]): 9
Giant foxtail plant response rating (giant foxtail; [6]): 10
Giant foxtail plant response rating (giant foxtail; [7]): 0
Giant foxtail plant response rating (giant foxtail; [8]): 2
Morningglory plant response rating (morningglory; [1]): 2
Morningglory plant response rating (morningglory; [2]): 2
Morningglory plant response rating (morningglory; [3]): 0
Plant response rating, Morningglory (morningglory; [4]): 0
Plant response rating, Morningglory (morningglory; [5]): 0
Morningglory plant response rating (morningglory; [6]): 3
Morningglory plant response rating (morningglory; [7]): 2
Morningglory plant response rating (morningglory; [8]): 6
Redroot pigweed plant response rating (pigweed; [1]): 0
Redroot pigweed plant response rating (pigweed; [2]): 0
Redroot pigweed plant response rating (pigweed; [3]): 0
Plant response rating, Redroot pigweed (pigweed; [4]): 0
Plant response rating, Redroot pigweed (pigweed; [5]): 0
Redroot pigweed plant response rating (pigweed; [6]): 0
Redroot pigweed plant response rating (pigweed; [7]): 0
Redroot pigweed plant response rating (pigweed; [8]): 0
Rape plant response rating (rape; [1]): 0
Rape plant response rating (rape; [2]): 0
Rape plant response rating (rape; [3]): 0
Plant response rating, Rape (rape; [4]): 0
Plant response rating, Rape (rape; [5]): 0
Rape plant response rating (rape; [6]): 0
Rape plant response rating (rape; [7]): 0
Rape plant response rating (rape; [8]): 0
Sugarbeets plant response rating (sugar beet; [1]): 0
Sugarbeets plant response rating (sugar beet; [2]): 0
Sugarbeets plant response rating (sugar beet; [3]): 0
Plant response rating, Sugarbeets (sugar beet; [4]): 0
Plant response rating, Sugarbeets (sugar beet; [5]): 0
Sugarbeets plant response rating (sugar beet; [6]): 0
Sugarbeets plant response rating (sugar beet; [7]): 0
Sugarbeets plant response rating (sugar beet; [8]): 5
Velvetleaf plant response rating (velvetleaf; [1]): 0
Velvetleaf plant response rating (velvetleaf; [2]): 2
Velvetleaf plant response rating (velvetleaf; [3]): 0
Plant response rating, Velvetleaf (velvetleaf; [4]): 0
Plant response rating, Velvetleaf (velvetleaf; [5]): 0
Velvetleaf plant response rating (velvetleaf; [6]): 0
Velvetleaf plant response rating (velvetleaf; [7]): 0
Velvetleaf plant response rating (velvetleaf; [8]): 7
Wheat plant response rating (wheat; [1]): 0
Wheat plant response rating (wheat; [2]): 0
Wheat plant response rating (wheat; [3]): 0
Plant response rating, Wheat (wheat; [4]): 0
Plant response rating, Wheat (wheat; [5]): 0
Wheat plant response rating (wheat; [6]): 0
Wheat plant response rating (wheat; [7]): 0
Wheat plant response rating (wheat; [8]): 0
Nutsedge plant response rating (purple nutsedge; [1]): 0
Nutsedge plant response rating (purple nutsedge; [2]): 0
Nutsedge plant response rating (purple nutsedge; [3]): 0
Plant response rating, Nutsedge (purple nutsedge; [4]): 0
Plant response rating, Nutsedge (purple nutsedge; [5]): 0
Nutsedge plant response rating (purple nutsedge; [6]): 0
Nutsedge plant response rating (purple nutsedge; [7]): 0
Nutsedge plant response rating (purple nutsedge; [8]): 3
Rice plant response rating (rice; [1]): 0
Rice plant response rating (rice; [9]): 0
Rice plant response rating (rice; [10]): 0
Rice plant response rating (rice; [11]): 0
S. Flatsedge plant response rating (smallflower flatsedge; [1]): 0
S. Flatsedge plant response rating (smallflower flatsedge; [9]): 0
S. Flatsedge plant response rating (smallflower flatsedge; [10]): 0
S. Flatsedge plant response rating (smallflower flatsedge; [11]): 0
Ducksalad plant response rating (duck salad; [1]): 0
Ducksalad plant response rating (duck salad; [9]): 0
Ducksalad plant response rating (duck salad; [10]): 0
Ducksalad plant response rating (duck salad; [11]): 0
